Where “and” joins values, the source holds several entries; their conditions need not be identical. Identical values can stand only once. Inconclusive results and toxic doses are left out. Cut-off read from the data, not from the text of the source: active = T/C of 150% or more; inactive = T/C below 125%.
Test system: L1210 leukemia ip in BDF1 mice, survival T/C
Test: NCI In Vivo Anticancer Drug Screen. Data for tumor model L1210 Leukemia (intraperitoneal) in B6D2F1 (BDF1) mice
Settings: endpoint: mean survival time, higher = longer survival
How it was run: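 Ratio derived from survival: compound-dosed mice over vehicle-dosed mice, all bearing a transplantable tumor.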

[1] = dose: 100.0 mg/kg/injection, schedule: Q01DX001 (ip), vehicle: saline
[2] = dose: 100.0 mg/kg/injection, schedule: Q01DX009 (ip), vehicle: saline
[3] = dose: 200.0 mg/kg/injection, schedule: Q01DX001 (ip), vehicle: saline
[4] = dose: 200.0 mg/kg/injection, schedule: Q01DX009 (ip), vehicle: saline
[5] = dose: 400.0 mg/kg/injection, schedule: Q01DX001 (ip), vehicle: saline
[6] = dose: 100.0 mg/kg/injection, schedule: Q04DX003 (ip), vehicle: saline with Tween-80
[7] = dose: 200.0 mg/kg/injection, schedule: Q04DX003 (ip), vehicle: saline with Tween-80
[8] = dose: 400.0 mg/kg/injection, schedule: Q04DX003 (ip), vehicle: saline with Tween-80
[9] = dose: 100.0 mg/kg/injection, schedule: Q04DX003 (ip), vehicle: Klucel (hydroxypropylcellulose) (HPC)
[10] = dose: 200.0 mg/kg/injection, schedule: Q04DX003 (ip), vehicle: Klucel (hydroxypropylcellulose) (HPC)
[11] = dose: 75.0 mg/kg/injection, schedule: Q01DX001 (ip), vehicle: other

Measured: T/C

O=C(O)C1CC=CCC1C(=O)NC(O)C(Cl)(Cl)Cl (centres undefined)
inactive: [1] 96 % of control | [2] 103 % of control | dose: 100.0 mg/kg/injection, schedule: Q04DX003 (ip), vehicle: acetone 93 % of control | [3] 100 % of control | [4] 102 % of control | dose: 200.0 mg/kg/injection, schedule: Q04DX003 (ip), vehicle: acetone 98 % of control | [5] 95 % of control | dose: 400.0 mg/kg/injection, schedule: Q01DX009 (ip), vehicle: saline 100 % of control | dose: 400.0 mg/kg/injection, schedule: Q04DX003 (ip), vehicle: acetone 97 % of control

BrC1(c2ccccc2)C(c2ccccc2)=C1c1ccccc1
inactive: dose: 50.0 mg/kg/injection, schedule: Q01DX001 (ip), vehicle: carboxymethylcellulose (CMC) 94 % of control | dose: 100.0 mg/kg/injection, schedule: Q01DX001 (ip), vehicle: carboxymethylcellulose (CMC) 94 % of control | dose: 200.0 mg/kg/injection, schedule: Q01DX001 (ip), vehicle: carboxymethylcellulose (CMC) 96 % of control

C=CCc1ccc(OCC(=O)O)c(OC)c1
inactive: [6] 106 % of control | [7] 93 % of control | [8] 97 % of control

Cc1cc(O)c(C=O)c(C)c1O
inactive: dose: 100.0 mg/kg/injection, schedule: Q01DX009 (ip), vehicle: Klucel (hydroxypropylcellulose) (HPC) 110 % of control | dose: 200.0 mg/kg/injection, schedule: Q01DX009 (ip), vehicle: Klucel (hydroxypropylcellulose) (HPC) 117 % of control

Cc1ccccc1-n1c(C)cc(=O)c(C(=O)Cl)c1C
inactive: dose: 25.0 mg/kg/injection, schedule: Q04DX003 (ip), vehicle: Klucel (hydroxypropylcellulose) (HPC) 95 % of control | dose: 50.0 mg/kg/injection, schedule: Q04DX003 (ip), vehicle: Klucel (hydroxypropylcellulose) (HPC) 95 % of control | dose: 75.0 mg/kg/injection, schedule: Q04DX003 (ip), vehicle: Klucel (hydroxypropylcellulose) (HPC) 97 % of control | [9] 103 % of control | [10] 110 % of control

O=[N+]([O-])c1cccc2cccc([N+](=O)[O-])c12
inactive: [2] 91 % of control | dose: 100.0 mg/kg/injection, schedule: Q04DX003 (ip), vehicle: saline 103 % of control | [4] 86 % of control | dose: 200.0 mg/kg/injection, schedule: Q04DX003 (ip), vehicle: saline 98 % of control | dose: 400.0 mg/kg/injection, schedule: Q04DX003 (ip), vehicle: saline 101 % of control

COc1ccc(Cl)cc1/C=C/C=O
inactive: [1] 91 % of control | [3] 92 % of control | [5] 102 % of control

COP(=O)(OC)/C(=N\NS(=O)(=O)c1ccc(C)cc1)c1ccccc1
inactive: [9] 94 % of control | [10] 101 % of control | dose: 400.0 mg/kg/injection, schedule: Q04DX003 (ip), vehicle: Klucel (hydroxypropylcellulose) (HPC) 94 % of control

COc1ccc(C(C)=O)c(O)c1C
inactive: dose: 100.0 mg/kg/injection, schedule: Q01DX009 (ip), vehicle: saline with Tween-80 111 % of control | dose: 200.0 mg/kg/injection, schedule: Q01DX009 (ip), vehicle: saline with Tween-80 94 % of control | dose: 400.0 mg/kg/injection, schedule: Q01DX009 (ip), vehicle: saline with Tween-80 92 % of control

CC1(O)CC(=O)C2C3C=CC(C3)C21 (centres undefined)
inactive: [11] 98 % of control | dose: 150.0 mg/kg/injection, schedule: Q01DX001 (ip), vehicle: other 104 % of control

c1ccc(-c2cn[nH]c2-c2ccccc2)cc1
inactive: dose: 100.0 mg/kg/injection, schedule: Q04DX002 (ip), vehicle: saline with Tween-80 103 % of control | dose: 200.0 mg/kg/injection, schedule: Q04DX002 (ip), vehicle: saline with Tween-80 100 % of control | dose: 400.0 mg/kg/injection, schedule: Q04DX002 (ip), vehicle: saline with Tween-80 106 % of control

O=C1CC2CCCCN2C2=C1CCCC2 (centres undefined)
inactive: dose: 25.0 mg/kg/injection, schedule: Q01DX009 (ip), vehicle: alcohol 101 % of control | dose: 50.0 mg/kg/injection, schedule: Q01DX009 (ip), vehicle: alcohol 98 % of control | dose: 100.0 mg/kg/injection, schedule: Q01DX009 (ip), vehicle: alcohol 93 % of control

CCOC(c1ccccc1)(c1ccccc1)c1ccccc1
inactive: [6] 101 % of control | [7] 90 % of control | [8] 91 % of control

CC(=O)c1ccccc1C(C)c1ccc2cccc(F)c2c1 (centres undefined)
inactive: dose: 75.0 mg/kg/injection, schedule: Q01DX001 (ip), vehicle: Klucel (hydroxypropylcellulose) (HPC) 96 % of control | dose: 150.0 mg/kg/injection, schedule: Q01DX001 (ip), vehicle: Klucel (hydroxypropylcellulose) (HPC) 100 % of control | dose: 300.0 mg/kg/injection, schedule: Q01DX001 (ip), vehicle: Klucel (hydroxypropylcellulose) (HPC) 102 % of control

NCCCCCCN (tested in a mixture with another compound)
inactive: dose: 3.0 mg/kg/injection, schedule: Q01DX009 (ip), vehicle: acid diluted with saline 101 % of control | dose: 3.0 mg/kg/injection, schedule: Q04DX003 (ip), vehicle: acid diluted with saline 104 % of control | dose: 6.0 mg/kg/injection, schedule: Q01DX009 (ip), vehicle: acid diluted with saline 108 % of control | dose: 6.0 mg/kg/injection, schedule: Q04DX003 (ip), vehicle: acid diluted with saline 89 % of control | dose: 12.0 mg/kg/injection, schedule: Q04DX003 (ip), vehicle: acid diluted with saline 106 % of control

C=CCCCCCCCCC(=O)NCc1ccncc1
inactive: [6] 90 % of control

CN(C)CCC(=O)c1cccc([N+](=O)[O-])c1
inactive: [11] 102 % of control

c1ccc2c(c1)Cc1ccccc1CN(CCNC1=NCCN1)C2
inactive: dose: 25.0 mg/kg/injection, schedule: Q01DX009 (ip), vehicle: saline with Tween-80 91 % of control | dose: 50.0 mg/kg/injection, schedule: Q01DX009 (ip), vehicle: saline with Tween-80 102 % of control | [6] 98 % of control

CCN(CC)CCOc1ccc(N)cc1
inactive: [1] 94 % of control | [3] 94 % of control | [5] 100 % of control

CC(=O)OCC1OC(Oc2c(C)cc([N+](=O)[O-])cc2[N+](=O)[O-])C(OC(C)=O)C(OC(C)=O)C1OC(C)=O (centres undefined)
inactive: [6] 94 % of control | [7] 100 % of control | [8] 100 % of control

Cc1cc(NC(=O)c2ccc(C(=O)Nc3cc(C)nc4ccccc34)cc2)c2ccccc2n1
inactive: dose: 100.0 mg/kg/injection, schedule: Q01DX001 (ip), vehicle: other 102 % of control

COc1cc(C)ccc1I
inactive: dose: 50.0 mg/kg/injection, schedule: Q01DX001 (ip), vehicle: saline with Tween-80 100 % of control | dose: 100.0 mg/kg/injection, schedule: Q01DX001 (ip), vehicle: saline with Tween-80 100 % of control | dose: 200.0 mg/kg/injection, schedule: Q01DX001 (ip), vehicle: saline with Tween-80 100 % of control

O=C(CCl)NCCCNC(=O)CCl
inactive: dose: 6.25 mg/kg/injection, schedule: Q01DX009 (ip), vehicle: other 94 % of control | dose: 12.5 mg/kg/injection, schedule: Q01DX009 (ip), vehicle: other 94 % of control | dose: 25.0 mg/kg/injection, schedule: Q01DX009 (ip), vehicle: other 94 % of control | dose: 25.0 mg/kg/injection, schedule: Q04DX003 (ip), vehicle: saline with Tween-80 98 % of control | dose: 50.0 mg/kg/injection, schedule: Q04DX003 (ip), vehicle: saline with Tween-80 102 % of control | [6] 111 % of control

CC1CCOS(=O)O1 (centres undefined)
inactive: dose: 20.0 mg/kg/injection, schedule: Q01DX010 (ip), vehicle: saline 96 % of control and 98 % of control | dose: 24.0 mg/kg/injection, schedule: Q01DX Z (ip), vehicle: carboxymethylcellulose (CMC) 104 % of control and 92 % of control | dose: 36.0 mg/kg/injection, schedule: Q01DX Z (ip), vehicle: carboxymethylcellulose (CMC) 95 % of control and 109 % of control | dose: 40.0 mg/kg/injection, schedule: Q01DX010 (ip), vehicle: saline 95 % of control and 96 % of control | dose: 50.0 mg/kg/injection, schedule: Q01DX001 (ip), vehicle: saline 98 % of control | dose: 54.0 mg/kg/injection, schedule: Q01DX Z (ip), vehicle: carboxymethylcellulose (CMC) 101 % of control and 111 % of control | dose: 80.0 mg/kg/injection, schedule: Q01DX010 (ip), vehicle: saline 98 % of control and 104 % of control | dose: 81.0 mg/kg/injection, schedule: Q01DX Z (ip), vehicle: carboxymethylcellulose (CMC) 96 % of control and 104 % of control | [1] 98 % of control and 102 % of control | [3] 104 % of control

CCCCCCCCCCCCCCCCCCNC(=O)Nc1ccccc1OC
inactive: dose: 100.0 mg/kg/injection, schedule: Q04DX002 (ip), vehicle: Klucel (hydroxypropylcellulose) (HPC) 101 % of control | dose: 200.0 mg/kg/injection, schedule: Q04DX002 (ip), vehicle: Klucel (hydroxypropylcellulose) (HPC) 107 % of control | dose: 400.0 mg/kg/injection, schedule: Q04DX002 (ip), vehicle: Klucel (hydroxypropylcellulose) (HPC) 96 % of control

Source: PubChem BioAssay AID248 (DTP/NCI, 2004)
